The text below walks through data of PMC5039424 (2016).

The structures appear in SMILES notation.

This assay deals with yeast tRNA^Phe (RNA, tRNA) GCGGAUUUAGCUCAGUUGGGAGAGCGCCAGACUGAAGAUCUGGAGGUCCUGUGUUCGAUCCACAGAAUUCGCACCA
Kind of assay: inhibition of lead(II)-induced cleavage, gel. The settings on record: 10 mM Mg2+, 1 mM NH4+, 0.5 mM Pb2+; 50% inhibition of Pb2+ cleavage; 50 mM Tris-HCl pH 7.5; RNA 2.4 μM.
In the case of `CN(C)c1ccc2cc3ccc(N(C)C)cc3[o+]c2c1`, the Ki was 166 ± 42 µM.
As to `CN(C)c1ccc2nc3ccc(N(C)C)cc3[s+]c2c1`, the Ki turned out to be 98 ± 20 µM.
`CN(C)c1ccc2nc3ccc(N)cc3[s+]c2c1` came in with a Ki of 52 ± 8.3 µM.
With `CNc1ccc2nc3ccc(=[N+](C)C)cc-3sc2c1`, the Ki came out at 58 ± 28 µM.

A word on the Ki: it is a measure of affinity in units of concentration, obtained from inhibition or displacement. Read a low Ki as a stronger hold on the target.
